The subject of the assay is scopolamine-induced amnesia. Description: Y-shaped maze test of spontaneous alternation behavior, prophylactic activity against scopolamine-induced amnesia. In kind it is in vivo, mice (ddY strain). As to conditions: male ddY mice; 5000 nmol/kg weight once orally 60 minutes before Y-shaped maze test; scopolamine 1 mg/kg weight subcutaneously 30 minutes before test. The protocol: Male mice (n=15) of the ddY strain (approximately 7-week old) were used, and they took food and water ad lib. Test substances used were 500 nmol/kg weight (230 ug/kg weight) and 5000 nmol/kg weight (2300 ug/kg weight) of Val-Pro-Pro-Phe (SEQ ID NO: 2). The test substances were administered to the mice once orally 60 minutes before the execution of a Y-shaped maze test for evaluation of spontaneous alternation behavior. Further, 30 minutes before the execution of the Y-shaped maze test, 1 mg/kg weight of scopolamine was subcutaneously administered on the backs of the mice in order to induce brain dysfunction (dysmnesia and/or cognitive impairment) in the mice. In the Y-shaped maze test, a Y-shaped maze was used as an experimental device, in which the length of each arm was 40 cm, the height of the wall was 12 cm, the width of the floor was 3 cm, and the width of the upper part was 10 cm, and three arms were connected to each other at an angle of 120 degrees. […] The sequence of the arms each of the mice entered was recorded. The number of entries by each of the mice for each of the arms during the measurement time was counted to be the total number of entries. […] The percentage of spontaneous alternation behavior was calculated by dividing the number of spontaneous alternation behavior by a number obtained by subtracting 2 from the total number of entries, and multiplying a resultant number by 100. […] The measured values were expressed in the form of mean±standard error for each group. A significant difference between the control group and the scopolamine control group was calculated using Student's t-test. Further, a significant difference between the scopolamine control group and the VPPF-administered group was calculated using Dunnett's multiple comparison test after one-way analysis of variance.
Male mice (n=15) of the ddY strain (approximately 7-week old) were used, and they took food and water ad lib. […] The arms each of the mice entered were sequentially recorded. […]

As for “Asn-Ile-Pro-Pro-Leu (NIPPL; Synthetic functional peptide)”, the “prophylactic activity against amnesia (percentage of spontaneous alternation behavior)” value is “had a prophylactic activity against amnesia”.

Turning to “Ile-Pro-Pro-Leu (IPPL; Synthetic functional peptide)”, the “prophylactic activity against amnesia (percentage of spontaneous alternation behavior)” value was “had a prophylactic activity against amnesia”.

Consider “Val-Pro-Pro-Phe (VPPF; Synthetic functional peptide)”, for which the “prophylactic activity against amnesia (percentage of spontaneous alternation behavior)” value is on record as “had a prophylactic activity against amnesia”.

(Values after US8916524B2, “Composition for improving brain function and method for improving brain function” (Calpis Co., Ltd., priority 2010, dated 2014).)
